Source: PubChem BioAssay (NCI)
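96-well plates; 48 h exposure; 5 concentrations. Endpoints by linear interpolation between flanking doses. Not reached: highest tested concentration assigned. The concentration for full growth arrest is given as TGI.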

Experiments:
Test in all cases: growth of human tumour cells (NCI), 48 h
A549 NSCLC = tested on: A549 NSCLC
HCC-2998 colon = tested on: HCC-2998 colon
U251 CNS = tested on: U251 CNS
NCI-H522 lung = tested on: NCI-H522 lung
EKVX NSCLC = tested on: EKVX NSCLC
RXF 393 renal = tested on: RXF 393 renal
MDA-N = tested on: MDA-N
HOP-92 NSCLC = tested on: HOP-92 NSCLC
A498 renal = tested on: A498 renal
M14 melanoma = tested on: M14 melanoma
SK-MEL-2 melanoma = tested on: SK-MEL-2 melanoma
SN12C renal = tested on: SN12C renal
SK-MEL-5 melanoma = tested on: SK-MEL-5 melanoma
CAKI-1 renal = tested on: CAKI-1 renal
MCF7 breast = tested on: MCF7 breast
NCI-H460 lung = tested on: NCI-H460 lung
HOP-62 NSCLC = tested on: HOP-62 NSCLC
MDA-MB-435 = tested on: MDA-MB-435
T-47D breast = tested on: T-47D breast
SR leukemia = tested on: SR leukemia

Structure (SMILES) | TGI (A549 NSCLC) [µM] | TGI (HCC-2998 colon) [µM] | TGI (U251 CNS) [µM] | TGI (NCI-H522 lung) [µM] | TGI (EKVX NSCLC) [µM] | TGI (RXF 393 renal) [µM] | TGI (MDA-N) [µM] | TGI (HOP-92 NSCLC) [µM] | TGI (A498 renal) [µM] | TGI (M14 melanoma) [µM] | TGI (SK-MEL-2 melanoma) [µM] | TGI (SN12C renal) [µM] | TGI (SK-MEL-5 melanoma) [µM] | TGI (CAKI-1 renal) [µM] | TGI (MCF7 breast) [µM] | TGI (NCI-H460 lung) [µM] | TGI (HOP-62 NSCLC) [µM] | TGI (MDA-MB-435) [µM] | TGI (T-47D breast) [µM] | TGI (SR leukemia) [µM]
C=C(C)C1CCC(C(=O)O)CC1 (configuration not stated) | > 100 | > 100 | > 100 | > 100 | > 100 | > 100 | > 100 | > 100 | > 100 | > 100 | > 100 | > 100 | > 100 | > 100 | > 100 | > 100 | > 100 | > 100 | > 100 | –
O=C1/C(=C\c2ccc([N+](=O)[O-])cc2)N(S(=O)(=O)c2ccccc2)c2ncccc21 | > 100 | – | 34.2 | 54.4 | – | 37 | 45.3 | – | – | 41.2 | – | 50.2 | 31.4 | 20.9 | > 100 | 38.3 | 46.2 | 47.2 | 35 | 20.8
COc1ccc(Cn2c(=O)c(OC)c(C)c3cc4ccccc4cc32)cc1 | > 100 | 63.5 | 80.6 | 59.6 | 60.3 | > 100 | > 100 | – | – | > 100 | 52.5 | 42.6 | 22.2 | > 100 | > 100 | 36.8 | > 100 | > 100 | > 100 | 57.5
Cc1nc2ccc(Br)cc2c(=O)n1-c1nnc(C(C)(C)C)s1 | > 10 | > 10 | > 10 | > 10 | > 10 | > 10 | > 10 | > 10 | – | > 10 | > 10 | > 10 | > 10 | > 10 | > 10 | > 10 | > 10 | > 10 | > 10 | > 10
CC(C)(C)C1CCC(=O)/C(=C/CC2CC(=O)N(c3ccccc3)C(=O)C2)C1 (configuration not stated) | – | 43.5 | 31 | 39.2 | 60.2 | – | 66.9 | – | 61.2 | – | 42.9 | 41.3 | 31.7 | 41.6 | 49.5 | 30.2 | 72.8 | 64.8 | 48.6 | 41.5
CC(C)(C)C1=C(Br)C(C(C)(C)C)OP1(=O)O (configuration not stated) | > 100 | > 100 | > 100 | > 100 | > 100 | – | > 100 | > 100 | > 100 | > 100 | > 100 | > 100 | > 100 | > 100 | > 100 | > 100 | > 100 | > 100 | > 100 | –
COc1ccc(/C=C2\N=C(N3CCCCC3)NC2=O)cc1 | > 100 | > 100 | > 100 | > 100 | > 100 | > 100 | > 100 | > 100 | – | > 100 | > 100 | > 100 | – | > 100 | > 100 | – | > 100 | > 100 | > 100 | > 100
COc1ccc2c(c1)CN1C(=N2)CSC1c1cccc(Br)c1 (configuration not stated) | > 100 | 57.8 | > 100 | > 100 | > 100 | 55.9 | > 100 | > 100 | – | > 100 | > 100 | 62.6 | 83.7 | > 100 | > 100 | > 100 | > 100 | > 100 | > 100 | > 100
CN(/N=C/c1ccc(C(=O)O)cc1)C1=NCCCCN1 | > 100 | > 100 | > 100 | > 100 | > 100 | – | > 100 | – | > 100 | > 100 | – | > 100 | > 100 | > 100 | > 100 | > 100 | > 100 | > 100 | > 100 | > 100
COC(=O)[C@@H]1C[C@H]2OC(=O)CC[C@]2(C)O[C@H]1[C@H]1O[C@@](C)(O)CCC[C@H]1C | > 50 | > 50 | > 50 | > 50 | > 50 | > 50 | > 50 | – | – | > 50 | > 50 | > 50 | > 50 | > 50 | > 50 | > 50 | > 50 | > 50 | > 50 | > 50
CNc1ncccc1Nc1cc(=O)n2c3cccnc3n(C)c2c1 | > 100 | > 100 | > 100 | > 100 | > 100 | 80.8 | > 100 | – | > 100 | > 100 | – | – | > 100 | > 100 | > 100 | > 100 | > 100 | > 100 | > 100 | > 100
CCCCC1(NN=C2CCCCC2)C(=O)N(c2ccccc2)N(c2ccccc2)C1=O | > 100 | > 100 | > 100 | > 100 | > 100 | > 100 | > 100 | – | – | > 100 | – | > 100 | > 100 | > 100 | > 100 | > 100 | > 100 | > 100 | > 100 | 32.2
C#CCn1c(=O)c(I)cn(/C(=C/C(=O)OCC)C(=O)OCC)c1=O | 36 | – | 32.1 | 2.37 | 10.2 | 12.2 | 9.41 | 3.37 | 33.7 | 3.61 | 33 | 32.3 | – | 3.38 | 6.16 | 49.8 | 32.9 | 19.8 | 2.28 | –
